# Experimental data reported in PubChem BioAssay (NCI).
#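 Tested at 5 concentrations; 48 h exposure; 96-well plates; endpoints linearly interpolated, else capped at highest concentration. At the TGI there is no net growth.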
# Tests used:
# Assay in all cases: NCI-60 cell line screen, 48 h
# DMS 114 small cell lung = test system: DMS 114 small cell lung
# COLO 205 colon = test system: COLO 205 colon
# MALME-3M melanoma = test system: MALME-3M melanoma
# DMS 273 small cell lung = test system: DMS 273 small cell lung
# HT29 colon = test system: HT29 colon
# SNB-78 CNS = test system: SNB-78 CNS
# M19-MEL melanoma = test system: M19-MEL melanoma
# RPMI-8226 leukemia = test system: RPMI-8226 leukemia
# SF-268 CNS = test system: SF-268 CNS
# K-562 leukemia = test system: K-562 leukemia
# SNB-19 CNS = test system: SNB-19 CNS
# SK-OV-3 ovarian = test system: SK-OV-3 ovarian
# SK-MEL-2 melanoma = test system: SK-MEL-2 melanoma
# SF-295 CNS = test system: SF-295 CNS
# HOP-18 NSCLC = test system: HOP-18 NSCLC
# A549 NSCLC = test system: A549 NSCLC
# HL-60(TB) leukemia = test system: HL-60(TB) leukemia
# RXF 393 renal = test system: RXF 393 renal
# SR leukemia = test system: SR leukemia
# MOLT-4 leukemia = test system: MOLT-4 leukemia
# OVCAR-8 ovarian = test system: OVCAR-8 ovarian
# IGROV1 ovarian = test system: IGROV1 ovarian
# HCT-15 colon = test system: HCT-15 colon
# DLD-1 colon = test system: DLD-1 colon
# NCI-H23 lung = test system: NCI-H23 lung
# CCRF-CEM leukemia = test system: CCRF-CEM leukemia
# SNB-75 CNS = test system: SNB-75 CNS
# SK-MEL-28 melanoma = test system: SK-MEL-28 melanoma
# SW-620 colon = test system: SW-620 colon
# KM12 colon = test system: KM12 colon
# U251 CNS = test system: U251 CNS
# HOP-92 NSCLC = test system: HOP-92 NSCLC
# KM20L2 colon = test system: KM20L2 colon
# HOP-62 NSCLC = test system: HOP-62 NSCLC
# OVCAR-5 ovarian = test system: OVCAR-5 ovarian
# NCI-H460 lung = test system: NCI-H460 lung
# NCI-H226 lung = test system: NCI-H226 lung
# HCT-116 colon = test system: HCT-116 colon
# M14 melanoma = test system: M14 melanoma
# SK-MEL-5 melanoma = test system: SK-MEL-5 melanoma
# CAKI-1 renal = test system: CAKI-1 renal
# OVCAR-3 ovarian = test system: OVCAR-3 ovarian
# 786-0 renal = test system: 786-0 renal
# EKVX NSCLC = test system: EKVX NSCLC
# HCC-2998 colon = test system: HCC-2998 colon
# SF-539 CNS = test system: SF-539 CNS
# UACC-257 melanoma = test system: UACC-257 melanoma
# UACC-62 melanoma = test system: UACC-62 melanoma
# SN12C renal = test system: SN12C renal
# OVCAR-4 ovarian = test system: OVCAR-4 ovarian
# UO-31 renal = test system: UO-31 renal
# ACHN renal = test system: ACHN renal
# NCI-H522 lung = test system: NCI-H522 lung
# LXFL 529 NSCLC = test system: LXFL 529 NSCLC
# RXF-631 renal = test system: RXF-631 renal
# LOX IMVI melanoma = test system: LOX IMVI melanoma
# TK-10 renal = test system: TK-10 renal
# A498 renal = test system: A498 renal
# XF 498 CNS = test system: XF 498 CNS
smiles,measurement,setting,value
CCCOc1nc(N)c2cnn(C3CCCCO3)c2n1 (configuration not stated),TGI,DMS 114 small cell lung,> 100 µM
same,TGI,COLO 205 colon,> 100 µM
same,TGI,MALME-3M melanoma,> 100 µM
same,TGI,DMS 273 small cell lung,> 100 µM
same,TGI,HT29 colon,> 100 µM
same,TGI,SNB-78 CNS,> 100 µM
same,TGI,M19-MEL melanoma,> 100 µM
same,TGI,RPMI-8226 leukemia,> 100 µM
same,TGI,SF-268 CNS,> 100 µM
same,TGI,K-562 leukemia,> 100 µM
same,TGI,SNB-19 CNS,> 100 µM
same,TGI,SK-OV-3 ovarian,> 100 µM
same,TGI,SK-MEL-2 melanoma,> 100 µM
same,TGI,SF-295 CNS,> 100 µM
same,TGI,HOP-18 NSCLC,> 100 µM
same,TGI,A549 NSCLC,> 100 µM
same,TGI,HL-60(TB) leukemia,> 100 µM
same,TGI,RXF 393 renal,> 100 µM
same,TGI,SR leukemia,> 100 µM
same,TGI,MOLT-4 leukemia,> 100 µM
same,TGI,OVCAR-8 ovarian,> 100 µM
same,TGI,IGROV1 ovarian,> 100 µM
same,TGI,HCT-15 colon,> 100 µM
same,TGI,DLD-1 colon,> 100 µM
same,TGI,NCI-H23 lung,> 100 µM
same,TGI,CCRF-CEM leukemia,> 100 µM
same,TGI,SNB-75 CNS,> 100 µM
same,TGI,SK-MEL-28 melanoma,> 100 µM
same,TGI,SW-620 colon,> 100 µM
same,TGI,KM12 colon,> 100 µM
same,TGI,U251 CNS,> 100 µM
same,TGI,HOP-92 NSCLC,> 100 µM
same,TGI,KM20L2 colon,> 100 µM
same,TGI,HOP-62 NSCLC,> 100 µM
same,TGI,OVCAR-5 ovarian,> 100 µM
same,TGI,NCI-H460 lung,> 100 µM
same,TGI,NCI-H226 lung,> 100 µM
same,TGI,HCT-116 colon,> 100 µM
same,TGI,M14 melanoma,> 100 µM
same,TGI,SK-MEL-5 melanoma,> 100 µM
same,TGI,CAKI-1 renal,> 100 µM
same,TGI,OVCAR-3 ovarian,> 100 µM
same,TGI,786-0 renal,> 100 µM
same,TGI,EKVX NSCLC,> 100 µM
same,TGI,HCC-2998 colon,> 100 µM
same,TGI,SF-539 CNS,> 100 µM
same,TGI,UACC-257 melanoma,> 100 µM
same,TGI,UACC-62 melanoma,> 100 µM
same,TGI,SN12C renal,> 100 µM
same,TGI,OVCAR-4 ovarian,> 100 µM
same,TGI,UO-31 renal,> 100 µM
same,TGI,ACHN renal,> 100 µM
same,TGI,NCI-H522 lung,> 100 µM
same,TGI,LXFL 529 NSCLC,> 100 µM
O=c1[nH]c2cc(Cl)ccc2nc1/C(=N\Nc1ccccc1)C(O)c1ccc(Cl)c(Cl)c1 (configuration not stated),TGI,DMS 114 small cell lung,> 100 µM
same,TGI,COLO 205 colon,> 100 µM
same,TGI,MALME-3M melanoma,> 100 µM
same,TGI,DMS 273 small cell lung,> 100 µM
same,TGI,HT29 colon,> 100 µM
same,TGI,SNB-78 CNS,> 100 µM
same,TGI,M19-MEL melanoma,> 100 µM
same,TGI,RPMI-8226 leukemia,> 100 µM
same,TGI,SF-268 CNS,> 100 µM
same,TGI,K-562 leukemia,> 100 µM
same,TGI,RXF-631 renal,> 100 µM
same,TGI,SNB-19 CNS,> 100 µM
same,TGI,SK-OV-3 ovarian,> 100 µM
same,TGI,SK-MEL-2 melanoma,> 100 µM
same,TGI,SF-295 CNS,> 100 µM
same,TGI,A549 NSCLC,> 100 µM
same,TGI,HL-60(TB) leukemia,> 100 µM
same,TGI,RXF 393 renal,> 100 µM
same,TGI,SR leukemia,> 100 µM
same,TGI,MOLT-4 leukemia,> 100 µM
same,TGI,OVCAR-8 ovarian,> 100 µM
same,TGI,LOX IMVI melanoma,> 100 µM
same,TGI,IGROV1 ovarian,> 100 µM
same,TGI,HCT-15 colon,> 100 µM
same,TGI,DLD-1 colon,> 100 µM
same,TGI,NCI-H23 lung,> 100 µM
same,TGI,CCRF-CEM leukemia,> 100 µM
same,TGI,SNB-75 CNS,> 100 µM
same,TGI,SW-620 colon,> 100 µM
same,TGI,KM12 colon,> 100 µM
same,TGI,U251 CNS,> 100 µM
same,TGI,HOP-92 NSCLC,> 100 µM
same,TGI,KM20L2 colon,> 100 µM
same,TGI,HOP-62 NSCLC,> 100 µM
same,TGI,OVCAR-5 ovarian,> 100 µM
same,TGI,NCI-H460 lung,> 100 µM
same,TGI,NCI-H226 lung,> 100 µM
same,TGI,HCT-116 colon,> 100 µM
same,TGI,M14 melanoma,> 100 µM
same,TGI,SK-MEL-5 melanoma,> 100 µM
same,TGI,OVCAR-3 ovarian,> 100 µM
same,TGI,786-0 renal,> 100 µM
same,TGI,EKVX NSCLC,> 100 µM
same,TGI,HCC-2998 colon,> 100 µM
same,TGI,TK-10 renal,> 100 µM
same,TGI,SF-539 CNS,> 100 µM
same,TGI,UACC-257 melanoma,> 100 µM
same,TGI,UACC-62 melanoma,> 100 µM
same,TGI,SN12C renal,> 100 µM
same,TGI,OVCAR-4 ovarian,> 100 µM
same,TGI,UO-31 renal,> 100 µM
same,TGI,ACHN renal,> 100 µM
same,TGI,NCI-H522 lung,> 100 µM
same,TGI,LXFL 529 NSCLC,> 100 µM
CN(C)C(=S)/N=c1\ssc(=S)n1C1CCCCC1,TGI,DMS 114 small cell lung,50.5 µM
same,TGI,MALME-3M melanoma,64.8 µM
same,TGI,DMS 273 small cell lung,> 100 µM
same,TGI,HT29 colon,> 100 µM
same,TGI,M19-MEL melanoma,> 100 µM
same,TGI,A498 renal,> 100 µM
same,TGI,SF-268 CNS,> 100 µM
same,TGI,K-562 leukemia,52.6 µM
same,TGI,RXF-631 renal,40.8 µM
same,TGI,SNB-19 CNS,> 100 µM
same,TGI,SK-OV-3 ovarian,> 100 µM
same,TGI,SK-MEL-2 melanoma,> 100 µM
same,TGI,SF-295 CNS,> 100 µM
same,TGI,HOP-18 NSCLC,> 100 µM
same,TGI,A549 NSCLC,> 100 µM
same,TGI,HL-60(TB) leukemia,32.5 µM
same,TGI,RXF 393 renal,> 100 µM
same,TGI,SR leukemia,63.1 µM
same,TGI,MOLT-4 leukemia,52.3 µM
same,TGI,OVCAR-8 ovarian,53.9 µM
same,TGI,IGROV1 ovarian,> 100 µM
same,TGI,HCT-15 colon,> 100 µM
same,TGI,DLD-1 colon,58.2 µM
same,TGI,NCI-H23 lung,> 100 µM
same,TGI,XF 498 CNS,59.3 µM
same,TGI,CCRF-CEM leukemia,46.1 µM
same,TGI,SNB-75 CNS,> 100 µM
same,TGI,SK-MEL-28 melanoma,> 100 µM
same,TGI,SW-620 colon,28.4 µM
same,TGI,KM12 colon,> 100 µM
same,TGI,U251 CNS,37.9 µM
same,TGI,HOP-92 NSCLC,96.6 µM
same,TGI,KM20L2 colon,> 100 µM
same,TGI,HOP-62 NSCLC,> 100 µM
same,TGI,OVCAR-5 ovarian,> 100 µM
same,TGI,NCI-H460 lung,> 100 µM
same,TGI,NCI-H226 lung,> 100 µM
same,TGI,HCT-116 colon,32.3 µM
same,TGI,M14 melanoma,36.3 µM
same,TGI,SK-MEL-5 melanoma,73.2 µM
same,TGI,CAKI-1 renal,90.6 µM
same,TGI,786-0 renal,31.6 µM
same,TGI,EKVX NSCLC,> 100 µM
same,TGI,HCC-2998 colon,> 100 µM
same,TGI,TK-10 renal,> 100 µM
same,TGI,SF-539 CNS,48.3 µM
same,TGI,UACC-257 melanoma,64.9 µM
same,TGI,UACC-62 melanoma,34.2 µM
same,TGI,SN12C renal,> 100 µM
same,TGI,OVCAR-4 ovarian,> 100 µM
same,TGI,UO-31 renal,> 100 µM
same,TGI,ACHN renal,> 100 µM
same,TGI,NCI-H522 lung,37.4 µM
same,TGI,LXFL 529 NSCLC,75.6 µM
